Each structure is given as a SMILES string. Where only a bound is given, the exact number is not on record here.

Experimental findings from US20170119776A1, “CHIRAL 2,5-DISUBSTITUTED CYCLOPENTANECARBOXYLIC ACID DERIVATIVES AND USE THEREOF” (BAYER PHARMA AKTIENGESELLSCHAFT, priority 2014, published 2017) are described below.

Holding throughout (format): biochemical
The target of one assay is T1, MMP-9 (Homo sapiens, UniProt P14780).
T1 construct: purchased R&D Systems 911-MP
The assay can be described thus: In vitro MMP-9 inhibition test. From the text:
(§1) The activity strength of the compounds according to the invention towards other MMPs (and therefore their selectivity) is likewise ascertained in in vitro inhibition tests. The MMP-mediated amidolytic cleavage of a suitable peptide substrate also leads here to a fluorescent light increase. The signal intensity of the fluorescent light is directly proportional to the enzyme activity. The active concentration of a test compound at which half of the enzyme is inhibited (50% signal intensity of the fluorescent light) is given as IC50 value.
(§2) Recombinant MMP-9 (R&D Systems, 911-MP) is chemically activated in accordance with the manufacturer's instructions using APMA. 1 μl of the test compound to be analysed (as a solution in DMSO, suitable concentrations e.g. 1 nM to 30 μM) is pipette into 24 μl of activated enzyme (final concentration e.g. 0.1 nM) in reaction buffer (50 mM Tris/HCl pH 7.5, 10 mM CaCl2, 150 mM NaCl, 0.05% Brij®-35) in a white 384-hole microtiter plate (MTP). The enzymatic reaction is started by adding the intramolecularly quenched substrate Mca-Pro-Leu-Gly-Leu-Dpa(Dnp)-Ala-Arg-NH2 (final concentration e.g. 10 μM; R&D Systems, ES-001), such that a total test volume of 50 μl results. The progress of the MMP-9 reaction is measured by measuring the fluorescence intensity (excitation 320 nm, emission 410 nm) over a suitable period (e.g. over 120 min at a temperature of 32° C.).
(§3) The IC50 values were determined for racemates and enantiomers from differently generated DMSO stock solutions. Whereas an automatically produced DMSO stock solution from the internal substance logistics was used for racemates by means of a standard method, in the case of enantiomers a freshly produced, manually prepared DMSO stock solution was used in each case for a more precise direct comparison of the enantiomers with one another.

Another assay concerns the target T2, MMP-16 (Homo sapiens, UniProt P51512).
T2 construct: purchased R&D Systems 1785-MP
In words: In vitro MMP-16 inhibition test.
Excerpt: as §1
Recombinant MMP-16 (R&D Systems, 1785-MP) is enzymatically activated in accordance with the manufacturer's instructions using recombinant furin (R&D Systems, 1503-SE). 1 μl of the test compound to be analysed (as a solution in DMSO, suitable concentrations e.g. 1 nM to 30 μM) is pipette into 24 μl of activated enzyme (final concentration e.g. 1 nM) in reaction buffer (50 mM Tris/HCl pH 7.5, 10 mM CaCl2, 150 mM NaCl, 0.05% Brij®-35) in a white 384-hole microtiter plate (MTP). The enzymatic reaction is started by adding the intramolecularly quenched substrate Mca-Lys-Pro-Leu-Gly-Leu-Dpa(Dnp)-Ala-Arg-NH2 (final concentration e.g. 5 μM; R&D Systems, ES-010), such that a total test volume of 50 μl results. The progress of the MMP-16 reaction is measured by measuring the fluorescence intensity (excitation 320 nm, emission 410 nm) over a suitable period (e.g. over 120 min at a temperature of 32° C.).
as §3

In another assay the target is MMP-2 of the rat. The assay can be described thus: In vitro MMP-2 inhibition test of the rat.
Excerpt: as §1
as §2, with “Recombinant MMP-2 of the rat” for “Recombinant MMP-9”, “Systems, 924-MP)” for “Systems, 911-MP)”, “APMA. […]” for “APMA. 1”, “is pipetted” for “is pipette”, “e.g. 1” for “e.g. 0.1”, “the MMP-2” for “the MMP-9”
(§4) Tables 3A and 3B below give the IC50 values from these tests for the inhibition of rodent MMPs for representative embodiment examples of the present invention and also for two structurally related comparison compounds from the prior art (as racemate and separated enantiomer)→(in part as average values from several independent individual determinations and rounded to two significant places). The IC50 values were determined for racemates and enantiomers from differently generated DMSO stock solutions. Whereas an automatically created DMSO stock solution from the internal substance logistics was used for racemates by means of a standard method, in the case of enantiomers, in each case a freshly produced, manually prepared DMSO stock solution was used for a more precise direct comparison of the enantiomers with one another.

The target in another assay is T3, MMP-9 of the mouse (Mus musculus, UniProt P41245).
T3 construct: purchased R&D Systems 909-MP
In words: In vitro MMP-9 inhibition test of the mouse.
Excerpt: as §1
Recombinant MMP-9 of the mouse (R&D Systems, 909-MP) is chemically activated in accordance with the manufacturer's instructions using APMA. 1 μl of the test compound to be analysed (as a solution in DMSO, suitable concentrations e.g. 1 nM to 30 μM) is pipetted into 24 μl of activated enzyme (final concentration e.g. 0.1 nM) in reaction buffer (50 mM Tris/HCl pH 7.5, 10 mM CaCl2, 150 mM NaCl, 0.05% Brij®-35) in a white 384-hole microtiter plate (MTP). The enzymatic reaction is started by adding the intramolecularly quenched substrate Mca-Pro-Leu-Gly-Leu-Dpa(Dnp)-Ala-Arg-NH2 (final concentration e.g. 5 μM; R&D Systems, ES-001), such that a total test volume of 50 μl results. The progress of the MMP-9 reaction is measured by measuring the fluorescence intensity (excitation 320 nm, emission 410 nm) over a suitable period (e.g. over 120 min at a temperature of 32° C.).
as §4

T1 sequence (P14780 107-707 limits assumed): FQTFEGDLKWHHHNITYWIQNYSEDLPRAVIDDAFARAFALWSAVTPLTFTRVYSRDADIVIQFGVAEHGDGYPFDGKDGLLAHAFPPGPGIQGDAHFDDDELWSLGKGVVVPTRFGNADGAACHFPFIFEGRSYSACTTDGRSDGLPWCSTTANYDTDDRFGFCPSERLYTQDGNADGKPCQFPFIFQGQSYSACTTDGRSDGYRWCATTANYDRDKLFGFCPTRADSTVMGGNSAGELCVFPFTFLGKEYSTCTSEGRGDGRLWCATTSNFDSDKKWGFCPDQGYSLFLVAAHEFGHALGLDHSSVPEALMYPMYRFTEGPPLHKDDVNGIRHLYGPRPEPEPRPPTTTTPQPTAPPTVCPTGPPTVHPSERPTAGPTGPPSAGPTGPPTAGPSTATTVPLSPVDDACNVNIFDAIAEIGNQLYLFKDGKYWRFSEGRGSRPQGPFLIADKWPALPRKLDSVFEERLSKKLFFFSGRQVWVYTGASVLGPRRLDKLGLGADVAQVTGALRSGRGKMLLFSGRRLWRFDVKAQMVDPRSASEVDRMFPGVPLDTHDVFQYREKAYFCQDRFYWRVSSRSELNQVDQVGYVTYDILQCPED
T3 sequence (P41245 108-730): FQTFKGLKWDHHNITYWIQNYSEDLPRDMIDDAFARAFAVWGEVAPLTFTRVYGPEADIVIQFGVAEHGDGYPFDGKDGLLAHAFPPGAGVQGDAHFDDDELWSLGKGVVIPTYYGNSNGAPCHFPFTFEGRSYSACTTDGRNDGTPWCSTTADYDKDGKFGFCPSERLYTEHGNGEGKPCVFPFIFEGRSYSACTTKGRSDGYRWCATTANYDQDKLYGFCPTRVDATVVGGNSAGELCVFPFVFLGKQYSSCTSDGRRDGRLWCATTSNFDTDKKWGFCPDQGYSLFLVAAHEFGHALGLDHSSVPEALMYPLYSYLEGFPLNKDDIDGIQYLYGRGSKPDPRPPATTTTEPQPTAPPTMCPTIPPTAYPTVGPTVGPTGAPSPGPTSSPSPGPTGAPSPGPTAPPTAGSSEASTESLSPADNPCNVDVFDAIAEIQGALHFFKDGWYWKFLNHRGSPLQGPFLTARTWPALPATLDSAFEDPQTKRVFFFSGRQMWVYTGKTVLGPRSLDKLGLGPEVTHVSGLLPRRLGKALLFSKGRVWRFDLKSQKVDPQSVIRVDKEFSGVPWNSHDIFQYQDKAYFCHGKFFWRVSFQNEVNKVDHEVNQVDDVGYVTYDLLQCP
T2 sequence (P51512 120-607): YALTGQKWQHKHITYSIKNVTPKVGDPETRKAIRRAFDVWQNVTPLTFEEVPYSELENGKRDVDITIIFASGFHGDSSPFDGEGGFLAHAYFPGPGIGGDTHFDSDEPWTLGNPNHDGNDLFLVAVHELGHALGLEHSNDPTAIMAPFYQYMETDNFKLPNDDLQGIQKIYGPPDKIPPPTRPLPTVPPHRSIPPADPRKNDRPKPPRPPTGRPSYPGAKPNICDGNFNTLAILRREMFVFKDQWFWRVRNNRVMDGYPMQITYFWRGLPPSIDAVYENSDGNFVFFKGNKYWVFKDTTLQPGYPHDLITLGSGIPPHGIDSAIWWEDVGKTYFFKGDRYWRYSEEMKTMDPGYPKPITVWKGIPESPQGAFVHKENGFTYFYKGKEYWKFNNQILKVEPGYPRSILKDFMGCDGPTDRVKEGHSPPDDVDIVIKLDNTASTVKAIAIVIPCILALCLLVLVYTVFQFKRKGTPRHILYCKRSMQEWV

For `O=C(O)[C@H]1[C@H](Cn2nnc3ccccc3c2=O)CC[C@@H]1C(=O)c1ccc(-c2ccc(Cl)cc2)cc1` (racemic) [Comparative Example A-1, (1RS,2RS,5SR)-2-[(4′-chlorobiphenyl-4-yl)carbonyl]-5-[(4-oxo-1,2,3-benzotriazin-3(4H)-yl)methyl]cyclopentanecarboxylic acid (racemate)], the IC50 against MMP-9 is 1.9 nM; against MMP-16, 16 nM; against MMP-2 of the rat, 1.3 nM; at MMP-9 of the mouse, 4.9 nM.

In the case of `CCCCCOc1ccc(C(=O)CC(CCn2nnc3ccccc3c2=O)C(=O)O)cc1` (racemic) [Comparative Example B-1, (+/−)-4-Oxo-2-[2-(4-oxo-1,2,3-benzotriazin-3(4H)-yl)ethyl]-4-[4-(pentyloxy)phenyl]butanoic acid (racemate)], the IC50 against MMP-9 was 1400 nM; against MMP-16, 22000 nM; at MMP-2 of the rat, 610 nM; against MMP-9 of the mouse, 2700 nM.

With `O=C(O)[C@H]1[C@H](Cn2nnc3ccccc3c2=O)CC[C@@H]1C(=O)c1ccc(OCc2ccccc2)cc1` (racemic) [Example 1, (+/−)-(1RS,2RS,5SR)-2-[4-(Benzyloxy)benzoyl]-5-[(4-oxo-1,2,3-benzotriazin-3(4H)-yl)methyl]cyclopentanecarboxylic acid (racemate)], the IC50 against MMP-9 was found to be 30 nM; against MMP-16, 130 nM; at MMP-2 of the rat, 33 nM; against MMP-9 of the mouse, 71 nM.

On to `CCCCCOc1ccc(C(=O)CC(CCn2nnc3ccccc3c2=O)C(=O)O)cc1` (single isomer, unassigned; enantiomer 1) [Comparative Example B-2, (+)-4-Oxo-2-[2-(4-oxo-1,2,3-benzotriazin-3(4H)-yl)ethyl]-4-[4-(pentyloxy)phenyl]butanoic acid (enantiomer 1)], for which the IC50 at MMP-9 was 625 nM; on MMP-16, 6700 nM; against MMP-2 of the rat it was 145 nM; against MMP-9 of the mouse it was 905 nM.

`O=C(O)[C@@H]1[C@@H](Cn2nnc3ccccc3c2=O)CC[C@H]1C(=O)c1ccc(-c2ccc(Cl)cc2)cc1` (single isomer, unassigned; enantiomer 2) [Comparative Example A-3, (1RS,2RS,5SR)-2-[(4′-Chlorobiphenyl-4-yl)carbonyl]-5-[(4-oxo-1,2,3-benzotriazin-3(4H)-yl)methyl]cyclopentanecarboxylic acid (enantiomer 2)]: the IC50 against MMP-9 is 1.1 nM; at MMP-16 it was 5.2 nM; on MMP-2 of the rat, less than 0.61 nM; at MMP-9 of the mouse, 1.5 nM.

On to `O=C(O)[C@H]1[C@H](Cn2nnc3ccccc3c2=O)CC[C@@H]1C(=O)c1ccc(OCc2ccccc2)cc1` [Example 2, (+)-(1S,2S,5R)-2-[4-(Benzyloxy)benzoyl]-5-[(4-oxo-1,2,3-benzotriazin-3(4H)-yl)methyl]cyclopentanecarboxylic acid], for which the IC50 was 23 nM against MMP-9, 78.5 nM on MMP-16, 16.5 nM against MMP-2 of the rat and 27.5 nM against MMP-9 of the mouse.

Broadly, the IC50 is the concentration that inhibits the measured activity by half. Lower therefore signals greater potency in that assay.
